The subject of assay [1] is synaptosomal uptake of serotonin (5-HT). The experiment in a line: Inhibition of synaptosomal serotonin (14C-5-HT) uptake. The class given is biochemical. The settings on record: synaptosomal uptake of 14C-5-HT, read-out: 5-HT uptake, inhibitory concentration at which the rate of uptake was reduced to 50 percent (IC50).
Assay [2] concerns synaptosomal uptake of norepinephrine. The experiment in a line: Inhibition of synaptosomal norepinephrine (3H-NE) uptake. The class given is biochemical. The settings on record: synaptosomal uptake of 3H-NE, read-out: NE uptake, inhibitory concentration at which the rate of uptake was reduced to 50 percent (IC50).
In the next assay the target is muscarinic receptor. The experiment in a line: Inhibition of 3H-QNB binding (QNB receptor binding assay). The following applies: for Ki / IC50: inhibition of 3H-QNB binding; for anticholinergic property reflected by inhibition of binding of the muscarinic receptor ligand 3H-QNB (in words): 3H-quinuclidinyl benzilate.

As to `COc1cccc(OC(CN(C)C)C2(O)CCCCCC2)c1` (centres unmarked) [Example 11, 1-[2-(Dimethylamino)-1-(3-methoxyphenoxy)ethyl]cycloheptanol], the IC50 worked out at 900 nM in assay [1] and 1160 nM in assay [2].
For `COc1cccc(OC(CN(C)C)C2(O)CCCC2)c1` (centres unmarked) [Example 12, 1-[2-(Dimethylamino)-1-(3-methoxyphenoxy)ethyl]cyclopentanol], in that order: 970 nM and 1580 nM.
On to `CNCCCN1c2ccccc2CCc2ccccc21` [DMI, reference compound], for which the IC50 in assay [2] is 150 nM. For the same compound, the affinity at muscarinic receptor corresponds to a Ki of […].
With `COc1ccc(OC(CN(C)C)C2(O)CCCCCC2)cc1` (centres unmarked) [Example 5, 1-[2-(Dimethylamino)-1-(4-methoxyphenoxy)ethyl]cycloheptanol], the IC50 in assay [1] is 170 nM; in assay [2], 810 nM.
For `COc1ccc(OC(CN(C)C)C2(O)CCCC2)cc1` (centres unmarked) [Example 6, 1-[2-(dimethylamino)-1-(4-methoxyphenoxy)ethyl]cyclopentanol], in that order: 640 nM and 3140 nM.
Consider `CNCCC(Oc1ccc(C(F)(F)F)cc1)c1ccccc1` (centres unmarked) [Fluoxetine, reference compound], for which the IC50 in assay [2] is 4500 nM.
`CN(C)CCCN1c2ccccc2CCc2ccccc21` [Imipramine, reference compound]: the values for the IC50 in assay [1] and in assay [2] were 120 nM and 260 nM, respectively. Further, at muscarinic receptor, the inhibition constant (Ki) (usually a dissociation constant, usually derived from enzyme kinetics or from competition with a known ligand) is 37 nM.
Consider `CN(C)CC(Oc1ccc(C(F)(F)F)cc1)C1(O)CCCCCC1` (centres unmarked) [Example 9, 1-[2-Dimethylamino-1-(4-trifluoromethylphenoxy)ethyl]cycloheptanol], for which the IC50 in assay [1] turned out to be 490 nM; in assay [2], 3780 nM.
For `COc1cccc(OC(CN(C)C)C2(O)CCCCC2)c1` (centres unmarked) [Example 10, 1-[2-(Dimethylamino)-1-(3-methoxyphenoxy)ethyl]cyclohexanol] the same measures were 700 nM and 1160 nM.
Take `CN(C)CC(Oc1ccc(Cl)cc1)C1(O)CCCCC1` (centres unmarked) [Example 1, 1-[1-(4-Chlorophenoxy)-2-(dimethylamino)ethyl]cyclohexanol]: the IC50 was 170 nM in assay [1], 220 nM in assay [2] and above 10000 nM at muscarinic receptor. The “anticholinergic property reflected by inhibition of binding of the muscarinic receptor ligand 3H-QNB (in words)” value in the assay on muscarinic receptor is “essentially inactive”.
Take `COc1ccc(OC(CN(C)C)C2(O)CCCCC2)cc1` (centres unmarked) [Example 4, 1-[2-(Dimethylamino)-1-(4-methoxyphenoxy)ethyl]cyclohexanol]: the IC50 worked out at 180 nM in assay [1] and 920 nM in assay [2].
For `CN(C)CC(Oc1cccc(C(F)(F)F)c1)C1(O)CCCCC1` (centres unmarked) [Example 7, 1-[2-(dimethylamino)-1-(3-trifluoromethylphenoxy)ethyl]cyclohexanol] the same measures were 1200 nM and 2350 nM.
For `CN(C)CC(Oc1ccc(C(F)(F)F)cc1)C1(O)CCCCC1` (centres unmarked) [Example 8, 1-[2-Dimethylamino-1-(4-trifluoromethylphenoxy)ethyl]cyclohexanol], in that order: 340 nM and 2500 nM.
For the compound `CN(C)CC(Oc1ccc(Cl)cc1Cl)C1(O)CCCC1` (centres unmarked) [Example 3, 8-[1-(2,4-Dichlorophenoxy)-2-(dimethylamino)ethyl]cyclopentanol], the IC50 stood at 440 nM in assay [1] and 2250 nM in assay [2].
For the compound `CN(C)CC(Oc1ccc(Cl)cc1Cl)C1(O)CCCCC1` (centres unmarked) [Example 2, 1-[1-(2,4-Dichlorophenoxy)-2-(dimethylamino)ethyl]cyclohexanol], the IC50 in assay [1] is 530 nM; in assay [2] it was 3140 nM; at muscarinic receptor, above 10000 nM. Also, in the assay with muscarinic receptor, the “anticholinergic property reflected by inhibition of binding of the muscarinic receptor ligand 3H-QNB (in words)” value was “essentially inactive”.
Take `CN(C)CCC=C1c2ccccc2CCc2ccccc21` [Amitriptyline, reference compound]: in assay [2], the IC50 came to […].

These data come from patent US4609758A, “Phenoxyethylamine derivatives” (American Home Products Corporation, priority 1985, dated 1986).
